Measured values reported in patent US9850183B2, “Conjugates derived from non-steroidal anti-inflammatory drugs and methods of use thereof in imaging” (Reiley Pharmaceuticals, Inc., priority 2014, dated 2017).
Read-outs that look alike come from different tables or passages of the source.

Legend:
[1] = biological target: T1, COX-2 (Mus musculus, UniProt Q05769); assay: Cell-based COX-2 assay (PGE2 in LPS/IFN-g stimulated RAW264.7 cells); settings: RAW264.7 murine macrophages, 1 μg/ml LPS and 10 U/ml IFN-g for 7 h, PGE2 readout
T1 construct: endogenous in cells; host or cells: RAW264.7 murine macrophages, stimulated with LPS and IFN-g
T1 sequence (Q05769 18-604): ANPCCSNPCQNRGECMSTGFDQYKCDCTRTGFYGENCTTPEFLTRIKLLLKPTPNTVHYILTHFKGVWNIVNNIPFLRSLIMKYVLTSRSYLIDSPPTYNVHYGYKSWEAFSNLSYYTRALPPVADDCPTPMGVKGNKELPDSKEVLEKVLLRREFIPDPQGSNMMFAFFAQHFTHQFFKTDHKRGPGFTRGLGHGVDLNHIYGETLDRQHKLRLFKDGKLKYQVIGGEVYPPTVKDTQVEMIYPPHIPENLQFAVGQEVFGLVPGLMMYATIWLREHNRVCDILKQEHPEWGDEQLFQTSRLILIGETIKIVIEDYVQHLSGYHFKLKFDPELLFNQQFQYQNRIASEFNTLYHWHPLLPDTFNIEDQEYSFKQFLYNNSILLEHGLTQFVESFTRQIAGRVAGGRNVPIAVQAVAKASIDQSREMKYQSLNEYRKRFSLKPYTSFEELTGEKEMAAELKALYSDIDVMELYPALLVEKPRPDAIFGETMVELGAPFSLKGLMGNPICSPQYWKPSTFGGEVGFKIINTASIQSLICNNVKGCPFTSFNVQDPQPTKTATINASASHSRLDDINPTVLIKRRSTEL
Method: RAW264.7 murine macrophages were obtained from the Cell Bank of Shanghai Institute of Biochemistry and Cell Biology, Chinese Academy of Sciences (Shanghai, China) and cultured in Dulbecco's modified Eagle's medium containing 100 U/ml penicillin and 100 μg/ml streptomycin at 37° C. in 5% CO2.
RAW264.7 cells were plated at a density of 2.5×10^5/ml cells in a 96-well plate with 0.1 ml of culture medium per well and cultured overnight. The cells were pre-incubated for 30 min with various doses of compounds and stimulated for 7 h with 1 μg/ml LPS and 10 U/ml IFN-g. The cell culture supernatants were collected immediately following treatment and centrifuged at 1,000 rpm for 5 min to remove the particulate matter. PGE2 was determined using a Prostaglandin E2 assay kit (catalog no. 62P2APEB; Cisbio Co.,). 10 μL of cell supernatant was transferred to a 384-well low volume plate (e.g. Corning® 3544), 5 μL of PGE2-d2 was added, followed by 5 μL anti-PGE2 Cryptate as a negative control. Replace the standard by 10 μL of diluent and PGE2-d2 by 5 μL of reconstitution buffer, Cal0 (for positive control), replace the standard by 10 μL of diluent. Incubate at 4° C. overnight. After centrifuging at 1,000 rpm for 1 min, the dual fluorescence emissions of 615 and 665 nm with a 320 nm excitation were measured using an Envision plate reader (Perkin Elmer, Shelton, Conn.). The results are expressed as the ratio of 665 nm/615 nm emissions.
(§1) Dose-response curves were generated using XLFit (IDBS, Surrey, UK) or Prism (GraphPad Software, La Jolla, Calif., US) to calculate IC50 values for each compound tested.

[2] = biological target: T2, human COX-2 (Homo sapiens, UniProt P35354); assay: COX-2 enzyme assay (EIA kit, PGF2α readout); assay type: biochemical
T2 construct: purchased Cayman Chemical Co., Ann Arbor, Mich., USA 701080
T2 sequence (P35354 18-604): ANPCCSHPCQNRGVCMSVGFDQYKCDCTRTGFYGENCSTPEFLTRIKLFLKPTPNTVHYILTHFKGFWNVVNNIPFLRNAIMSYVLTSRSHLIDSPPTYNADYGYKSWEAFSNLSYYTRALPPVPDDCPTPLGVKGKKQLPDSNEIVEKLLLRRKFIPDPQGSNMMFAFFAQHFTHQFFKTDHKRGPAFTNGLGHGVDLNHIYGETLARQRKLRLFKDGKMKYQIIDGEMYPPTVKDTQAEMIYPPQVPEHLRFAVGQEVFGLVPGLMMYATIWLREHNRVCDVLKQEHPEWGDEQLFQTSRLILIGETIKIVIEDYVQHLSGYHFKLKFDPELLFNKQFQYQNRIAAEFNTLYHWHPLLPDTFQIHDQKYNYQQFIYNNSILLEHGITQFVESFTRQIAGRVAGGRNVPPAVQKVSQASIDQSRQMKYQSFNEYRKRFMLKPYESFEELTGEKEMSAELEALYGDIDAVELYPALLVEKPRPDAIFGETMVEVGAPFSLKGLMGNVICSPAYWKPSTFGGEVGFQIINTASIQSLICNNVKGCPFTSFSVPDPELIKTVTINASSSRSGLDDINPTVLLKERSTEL
Method: (§2) The ability of compounds to inhibit ovine COX-1 and human COX-2 was determined using a commercially available enzyme immunoassay (EIA) kit (catalog no. 701090 (COX-1); 701080 (COX-2) Cayman Chemical Co., Ann Arbor, Mich., USA) according to the manufacturer's protocol. COX catalyzes the first step in the biosynthesis of AA to PGH2. PGF2α, produced from PGH2 by reduction with stannous chloride, was measured by EIA (ACE™ competitive EIA, Cayman Chemical, Ann Arbor, Mich., USA). Briefly, to a series of supplied reaction buffer solutions [960 μl 0.1 M Tris-HCl (pH 8.0) containing 5 mM EDTA and 2 mM phenol] with either COX-1 or COX-2 (10 μl) enzyme in the presence of heme (10 μl), 10 μl of various concentrations of test drug solutions were added. These solutions were incubated for 15 min at 37° C. and subsequently 10 μl AA solution (100 μM) was added. The COX reaction was stopped by the addition of 30 μl stannus chloride after 2 min, mixed immediately, supernatants were 2000 fold diluted. The produced PGF2α was measured by EIA. This assay is based on the competition between PGs and a PG-acetylcholinesterase conjugate (PG tracer) for a limited amount of PG antiserum. The amount of PG tracer that is able to bind to the PG antiserum is inversely proportional to the concentration of PGs in the wells since the concentration of the PG tracer is held at a constant while the concentration of PGs varies. The specific antiserum-PG complex bound to a mouse anti-rabbit IgG that had been previously attached to the well. The plate was washed to remove any unbound reagents and 200 μl Ellman's reagent (5,5′-dithiobis-(2-nitrobenzoic acid), which contains the substrate to acetylcholine esterase, was added to the well. The product of this enzymatic reaction generates a distinct yellow color that absorbs at 406 nm. The intensity of this color, determined by spectrophotometry, is proportional to the amount of PG tracer bound to the well, which is inversely proportional to the amount of PGs present in the well during the incubation. Percent inhibition was calculated by the comparison of the compounds treated to the various control incubations.
as §1

[3] = biological target: T3, ovine COX-1 (Ovis aries, UniProt P05979); assay: biochemical
T3 sequence (P05979 25-600): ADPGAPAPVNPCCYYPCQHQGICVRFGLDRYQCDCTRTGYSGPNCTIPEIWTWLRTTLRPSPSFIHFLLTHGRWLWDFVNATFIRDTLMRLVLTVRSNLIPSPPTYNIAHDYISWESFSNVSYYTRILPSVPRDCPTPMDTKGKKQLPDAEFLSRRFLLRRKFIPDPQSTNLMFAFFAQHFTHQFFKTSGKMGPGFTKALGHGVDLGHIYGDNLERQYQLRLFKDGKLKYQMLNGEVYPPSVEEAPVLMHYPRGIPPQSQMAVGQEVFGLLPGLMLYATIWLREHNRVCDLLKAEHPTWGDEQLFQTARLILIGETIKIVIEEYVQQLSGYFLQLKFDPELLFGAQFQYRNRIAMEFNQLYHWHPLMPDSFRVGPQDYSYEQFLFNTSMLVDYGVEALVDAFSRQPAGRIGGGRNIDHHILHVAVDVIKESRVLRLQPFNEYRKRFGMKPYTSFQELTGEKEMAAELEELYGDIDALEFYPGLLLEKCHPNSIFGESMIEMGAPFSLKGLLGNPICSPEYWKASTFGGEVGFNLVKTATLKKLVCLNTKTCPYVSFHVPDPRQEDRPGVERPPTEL
Method: as §2, §1

[4] = human COX-2 enzyme, EIA, 15 min pre-incubation at 37° C., read-out: COX-2 IC50 (μM) enzyme
[5] = ovine COX-1 enzyme, EIA, read-out: COX-1 IC50 (μm) enzyme

Compound | IC50 [1] | IC50 [2, 4] | IC50 [3, 5] | IC50 [2] | IC50 [3]
COc1ccc2c(c1)c(CC(=O)NCCCCCCNC(=O)[c-]1cccc1)c(C)n2C(=O)c1ccc(Cl)cc1.[C-]#[O+].[C-]#[O+].[C-]#[O+].[Re+] [Compound 242] | 0.4 µM | 0.3 µM | > 30000 nM | – | –
COc1ccc2c(c1)c(CC(=O)NCCCCCCCNC(=O)[c-]1cccc1)c(C)n2C(=O)c1ccc(Cl)cc1.[C-]#[O+].[C-]#[O+].[C-]#[O+].[Re+] [Compound 246] | 0.2 µM | 0.1 µM | > 30000 nM | – | –
COc1ccc2c(c1)c(CC(=O)NCCCCCC[N+]13CC[S][Re-]14(=[O])[S]CC[N]4C(=O)C3)c(C)n2C(=O)c1ccc(Cl)cc1 (centres unmarked) [Compound 260] | 0.2 µM | 0.3 µM | > 30000 nM | – | –
COc1ccc2c(c1)c(CC(=O)NCCCS(=O)(=O)CCC[N+]13CC[S][Re-]14(=[O])[S]CC[N]4C(=O)C3)c(C)n2C(=O)c1ccc(Cl)cc1 (centres unmarked) [Compound 268] | > 10 µM | > 30 µM | – | – | –
COc1ccc2c(c1)c(CC(=O)NCCOCCOCC[N+]13CC[S][Re-]14(=[O])[S]CC[N]4C(=O)C3)c(C)n2C(=O)c1ccc(Cl)cc1 (centres unmarked) [Compound 269] | 0.9 µM | 0.5 µM | – | – | –
COc1ccc2c(c1)c(CC(=O)NCCCCCC[N+]13CC[S][Re-]14(=[O])[S]CC[N]4CC3)c(C)n2C(=O)c1ccc(Cl)cc1 (centres unmarked) [Compound 275] | 0.2 µM | 0.7 µM | > 30000 nM | – | –
COc1ccc2c(c1)c(CC(=O)NCCCCCCC[N+]13CC[S][Re-]14(=[O])[S]CC[N]4CC3)c(C)n2C(=O)c1ccc(Cl)cc1 (centres unmarked) [Compound 305] | 0.1 µM | – | – | 0.3 µM | > 30000 nM
COc1ccc2c(c1)c(CC(=O)NCCC(C)(C)CC[N+]13CC[S][Re-]14(=[O])[S]CC[N]4CC3)c(C)n2C(=O)c1ccc(Cl)cc1 (centres unmarked) [Compound 307] | 0.5 µM | > 30 µM | – | – | –
COc1ccc2c(c1)c(CC(=O)NCCCCCNC(=O)c1ccc[cH-]1)c(C)n2C(=O)c1ccc(Cl)cc1.[C-]#[O+].[C-]#[O+].[C-]#[O+].[Re+] [Compound 308] | 0.2 µM | 0.9 µM | – | – | –
COc1ccc2c(c1)c(CC(=O)NCCC(C)(C)CCNC(=O)c1ccc[cH-]1)c(C)n2C(=O)c1ccc(Cl)cc1.[C-]#[O+].[C-]#[O+].[C-]#[O+].[Re+] [Compound 309] | 0.3 µM | 0.5 µM | – | – | –
COc1ccc2c(c1)c(CC(=O)NCCCOCCCNC(=O)c1ccc[cH-]1)c(C)n2C(=O)c1ccc(Cl)cc1.[C-]#[O+].[C-]#[O+].[C-]#[O+].[Re+] [Compound 310] | 0.2 µM | > 30 µM | – | – | –
COc1ccc2c(c1)c(CC(=O)NCCCCC(C)(C)NC(=O)c1ccc[cH-]1)c(C)n2C(=O)c1ccc(Cl)cc1.[C-]#[O+].[C-]#[O+].[C-]#[O+].[Re+] [Compound 312] | 0.4 µM | 0.1 µM | – | – | –
COc1ccc2c(c1)c(CC(=O)N[C@H](C)CCCCC[N+]13CC[S][Re-]14(=[O])[S]CC[N]4C(=O)C3)c(C)n2C(=O)c1ccc(Cl)cc1 (some centres unmarked) [Compound 328] | 0.1 µM | 0.6 µM | – | – | –
COc1ccc2c(c1)c(CC(=O)NCCC=CCC[N+]13CC[S][Re-]14(=[O])[S]CC[N]4C(=O)C3)c(C)n2C(=O)c1ccc(Cl)cc1 (centres unmarked) [Compound 341] | 0.3 µM | 0.8 µM | – | – | –
[2H]C([2H])([2H])Oc1ccc2c(c1)c(CC(=O)NCCCCCC[N+]13CC[S][Re-]14(=[O])[S]CC[N]4C(=O)C3)c(C)n2C(=O)c1ccc(Cl)cc1 (centres unmarked) [Compound 346] | 0.2 µM | 0.3 µM | – | – | –
COc1ccc2c(c1)c(CC(=O)NCCCCCC[N+]13CC[S][Re-]14(=[O])[S]CC[N]4C(=O)C3)c(C(F)(F)F)n2C(=O)c1ccc(Cl)cc1 (centres unmarked) [Compound 351] | 0.4 µM | > 30 µM | – | – | –
COc1ccc2c(c1)c(CCNC(=O)CCCCC[N+]13CC[S][Re-]14(=[O])[S]CC[N]4C(=O)C3)c(C)n2C(=O)c1ccc(Cl)cc1 (centres unmarked) [Compound 359] | 0.2 µM | 0.6 µM | – | – | –
NS(=O)(=O)c1ccc(-n2nc(CNC(=O)c3ccc[cH-]3)cc2-c2ccc(F)cc2)cc1.[C-]#[O+].[C-]#[O+].[C-]#[O+].[Re+] [Compound 365] | 1.1 µM | 7.9 µM | – | – | –
NS(=O)(=O)c1ccc(-n2nc(CNC(=O)CCCCC[N+]34CC[S][Re-]35(=[O])[S]CC[N]5C(=O)C4)cc2-c2ccc(F)cc2)cc1 (centres unmarked) [Compound 367] | > 10 µM | – | – | 4.5 µM | –
COc1ccc2c(c1)c(CCNCc1ccccn1)c(C)n2C(=O)c1ccc(Cl)cc1 [Compound 369] | – | – | > 30000 nM | – | –
